Data reported in US7101881B2, “Tetrahydroquinolines” (Pfizer Inc, priority 2003, dated 2006).
Where a name gives a salt, the structure may show the parent alone.

| SMILES | melting point |
| --- | --- |
| COc1ccc(CC(=O)N2CCc3cccc(N4CCN(C)CC4)c3C2)cc1 (as salt: salt) [Example 3, 2-(4-Methoxy-phenyl)-1-[8-(4-methyl-piperazin-1-yl)-3,4-dihydro-1H-isoquinolin-2-yl]-ethanone] | 63 °C |
| CN1CCN(c2cccc3c2CN(C(=O)CC2CC2)CC3)CC1 (as salt: salt) | 66 °C |
| CN1CCN(c2cccc3c2CN(C(=O)CCc2ccc(Cl)cc2)CC3)CC1 (as salt: salt) [Example 2, 3-(4-Chloro-phenyl)-1-[8-(4-methyl-piperazin-1-yl)-3,4-dihydro-1H-isoquinolin-2-yl]-propan-1-one] | 84 °C |
| CN1CCN(c2cccc3c2CN(C(=O)Cc2ccc(Cl)cc2Cl)CC3)CC1 (as salt: salt) [Example 6, 2-(2,4-Dichloro-phenyl)-1-[8-(4-methyl-piperazin-1-yl)-3,4-dihydro-1H-isoquinolin-2-yl]-ethanone] | 85 °C |

Continued, values first:

| melting point | SMILES |
| --- | --- |
| 66 °C | CN1CCN(c2cccc3c2CN(C(=O)Cc2ccc(Cl)c(Cl)c2)CC3)CC1 [Example 12, 2-(3,4-Dichloro-phenyl)-1-[8-(4-methyl-piperazin-1-yl)-3,4-dihydro-1H-isoquinolin-2-yl]-ethanone] |
| 54 °C | CN1CCN(c2cccc3c2CN(C(=O)Cc2ccccc2Cl)CC3)CC1 (as salt: salt) [Example 7, 2-(2-Chloro-phenyl)-1-[8-(4-methyl-piperazin-1-yl)-3,4-dihydro-1H-isoquinolin-2-yl]-ethanone] |
| 56 °C | CN1CCN(c2cccc3c2CN(C(=O)Cc2cccnc2)CC3)CC1 (as salt: salt) [Example 9, 1-[8-(4-Methyl-piperazin-1-yl)-3,4-dihydro-1H-isoquinolin-2-yl]-2-pyridin-3-yl-ethanone] |
| 129 °C (dec.) | CN1CCN(c2cccc3c2CN(C(=O)c2ccc(N4CCOCC4)cc2)CC3)CC1 [Example 11, [8-(4-Methyl-piperazin-1-yl)-3,4-dihydro-1H-isoquinolin-2-yl]-(4-morpholin-4-yl-phenyl)-methanone] |
| 52 °C | CN1CCN(c2cccc3c2CN(C(=O)c2ccc(Cl)cc2)CC3)CC1 (as salt: salt) [Example 10, (4-Chloro-phenyl)-[8-(4-methyl-piperazin-1-yl)-3,4-dihydro-1H-isoquinolin-2-yl]-methanone] |
